Measurements taken from the supplement of paper PMC13380429.

Key:
[1] = test system: U2OS; test: relative viability EC50 (midpoint between 100% and the lowest measured viability); higher = less toxic; details: 72 h
[2] = test system: Caco-2; test: as above; details: 72 h
[3] = test system: Calu-3; test: as above; details: 72 h
[4] = test system: Vero E6; test: as above; details: 72 h
[5] = test system: A549-ACE2; test: drug-induced phospholipidosis relative to tamoxifen; higher = more phospholipidosis
[6] = test system: A549-ACE2 infected with SARS-CoV-2; test: SARS-CoV-2 infection rate relative to DMSO; higher = more infection; details: 24 h
[7] = test system: U2OS; test: cell viability relative to DMSO; higher = less toxic; details: 72 h
[8] = test system: Caco-2; test: as above; details: 72 h
[9] = test system: Calu-3; test: as above; details: 72 h
[10] = test system: HepG2; test: as above; details: 72 h
[11] = test system: Vero E6; test: as above; details: 72 h
[12] = test system: A549-ACE2 infected with SARS-CoV-2; test: cell count relative to DMSO; higher = less toxic; details: 24 h
[13] = test system: A549-ACE2 infected with SARS-CoV-2; test: morphology score (similarity to uninfected cells); higher = more like uninfected cells; details: 24 h
[14] = test system: U2OS; test: drug sensitivity score (DSS) for viability; higher = more toxic; extreme values may be limits of the assay; details: 72 h
[15] = test system: Caco-2; test: as above; details: 72 h
[16] = test system: Calu-3; test: as above; details: 72 h
[17] = test system: HepG2; test: as above; details: 72 h
[18] = test system: Vero E6; test: as above; details: 72 h
[19] = test system: HepG2; test: relative viability EC50 (midpoint between 100% and the lowest measured viability); higher = less toxic; details: 72 h
[20] = test system: A549-ACE2; test: phospholipidosis EC50; higher = less potent phospholipidosis inducer

Cn1cc(-c2cnn3c(N)c(Br)c([C@@H]4CCCNC4)nc23)cn1
Details | drug sensitivity score | relative viability EC50 [µM]
[1] | – | 1.38
[2] | – | > 10
[3] | – | > 10
[4] | – | > 10
[14] | 8.7 | –
[15] | 0 | –
[16] | 0 | –
[17] | 5.7 | –
[18] | 0.9 | –

drug-induced phospholipidosis [%], [5]
Details | 0.3 µM | 0.833333 µM | 3.33333 µM | 6.66667 µM | 10 µM | 30 µM
24 h | 0.22 | 3.23 | 6.07 | 18.9 | 19.9 | 52.2
48 h | 3.9 | 4.18 | 8.86 | 16.4 | 18.3 | 60.6
72 h | 6.85 | 4.55 | 10.4 | 11.1 | 15.4 | –

Details | SARS-CoV-2 infection rate, [6] [%] | cell count, [12] [%] | cell viability, [7] [%] | cell viability, [8] [%] | cell viability, [9] [%] | cell viability, [10] [%] | cell viability, [11] [%] | morphology score, [13]
1 nM | – | – | 98.3 | 92.5 | 99.2 | 98.8 | 102 | –
10 nM | – | – | 92 | 100 | 95.1 | 101 | 102 | –
100 nM | – | – | 100 | 93.4 | 97.6 | 88.7 | 98.2 | –
0.3 µM | 102 | 99 | – | – | – | – | – | -0.17
1000 nM | – | – | 73.4 | 97.7 | 93.3 | 75 | 95.7 | –
3 µM | 87 | 110 | – | – | – | – | – | 0.41
10 µM | 50 | 106 | – | – | – | – | – | 0.67
10000 nM | – | – | 13.7 | 86.2 | 100 | 52 | 82.1 | –
30 µM | 13 | 79 | – | – | – | – | – | 0.84

CC(CN1c2ccccc2Sc2ccccc21)N(C)C (stereo unspecified) [promethazine]
Details | drug sensitivity score | relative viability EC50 [µM]
[1] | – | > 10
[2] | – | > 10
[3] | – | > 10
[4] | – | > 10
[14] | 0 | –
[15] | 0 | –
[16] | 0 | –
[17] | 0.3 | –
[18] | 0.4 | –
[19] | – | > 10

drug-induced phospholipidosis [%], [5]
Details | 0.3 µM | 0.833333 µM | 3.33333 µM | 6.66667 µM | 10 µM | 30 µM
24 h | 1.08 | 0.17 | 9.69 | 43.2 | 62.1 | 92
48 h | -0.1 | 0.2 | 6.54 | 31.9 | 55.6 | 96.7
72 h | 1.14 | 0.443 | 8.72 | 23.6 | 50.4 | 102

Details | SARS-CoV-2 infection rate [%] | cell count [%] | cell viability [%] | morphology score | phospholipidosis EC50 [µM]
[6], 0.3 µM | 93 | – | – | – | –
[6], 3 µM | 51 | – | – | – | –
[6], 10 µM | 63 | – | – | – | –
[6], 30 µM | 11 | – | – | – | –
[7], 1 nM | – | – | 103 | – | –
[7], 10 nM | – | – | 108 | – | –
[7], 100 nM | – | – | 97.8 | – | –
[7], 1000 nM | – | – | 100 | – | –
[7], 10000 nM | – | – | 94.9 | – | –
[8], 1 nM | – | – | 99.8 | – | –
[8], 10 nM | – | – | 99 | – | –
[8], 100 nM | – | – | 106 | – | –
[8], 1000 nM | – | – | 107 | – | –
[8], 10000 nM | – | – | 92.7 | – | –
[9], 1 nM | – | – | 112 | – | –
[9], 10 nM | – | – | 103 | – | –
[9], 100 nM | – | – | 98.6 | – | –
[9], 1000 nM | – | – | 103 | – | –
[9], 10000 nM | – | – | 96.1 | – | –
[10], 1 nM | – | – | 119 | – | –
[10], 10 nM | – | – | 96.4 | – | –
[10], 100 nM | – | – | 78.1 | – | –
[10], 1000 nM | – | – | 103 | – | –
[10], 10000 nM | – | – | 83.3 | – | –
[11], 1 nM | – | – | 101 | – | –
[11], 10 nM | – | – | 95.5 | – | –
[11], 100 nM | – | – | 99.4 | – | –
[11], 1000 nM | – | – | 102 | – | –
[11], 10000 nM | – | – | 80.5 | – | –
[12], 0.3 µM | – | 103 | – | – | –
[12], 3 µM | – | 112 | – | – | –
[12], 10 µM | – | 118 | – | – | –
[12], 30 µM | – | 115 | – | – | –
[13], 0.3 µM | – | – | – | 0.09 | –
[13], 3 µM | – | – | – | 0.72 | –
[13], 10 µM | – | – | – | 0.76 | –
[13], 30 µM | – | – | – | 0.72 | –
[20], 24 h | – | – | – | – | 7.49
[20], 48 h | – | – | – | – | 9.37
[20], 72 h | – | – | – | – | 11.1
